Results taken from the supplement of paper PMC10307832.

Columns and labels:
Experiment in all cases: relative viability (nuclei count vs DMSO), 5 days (fraction); higher = more cells survive
HCC-78 = tested on: HCC-78
In short: (§1)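 Lung cancer cell lines were pin-tool dosed in 1536-well plates on the day after seeding, with either a lone drug or a fixed anchor-drug dose plus five library-drug doses (not always all listed) in √10 steps. Nuclei were counted on 4× images after 5 days. Relative viability is the ratio of treated-well to vehicle-well nuclei counts, with each value a median of duplicate plates.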

HCC-827 = tested on: HCC-827
In short: as §1

NCI-H1650 = tested on: NCI-H1650
In short: as §1

LK-2 = tested on: LK-2
In short: as §1

NCI-H2087 = tested on: NCI-H2087
In short: as §1

EKVX = tested on: EKVX
In short: as §1

NCI-H1792 = tested on: NCI-H1792
In short: as §1

NCI-H727 = tested on: NCI-H727
In short: as §1

COR-L 105 = tested on: COR-L 105
In short: as §1

NCI-H1734 = tested on: NCI-H1734
In short: as §1

EMC-BAC-2 = tested on: EMC-BAC-2
In short: as §1

EPLC-272H = tested on: EPLC-272H
In short: as §1

SK-MES-1 = tested on: SK-MES-1
In short: as §1

NCI-H2126 = tested on: NCI-H2126
In short: as §1

LOU-NH91 = tested on: LOU-NH91
In short: as §1

ChaGo-K-1 = tested on: ChaGo-K-1
In short: as §1

RERF-LC-KJ = tested on: RERF-LC-KJ
In short: as §1

SW 1573 = tested on: SW 1573
In short: as §1

LU99A = tested on: LU99A
In short: as §1

NCI-H1944 = tested on: NCI-H1944
In short: as §1

BEN = tested on: BEN
In short: as §1

LCLC-97TM1 = tested on: LCLC-97TM1
In short: as §1

SMILES: Cc1cnc(-c2cnc(NCCNc3ccc(C#N)cn3)nc2-c2ccc(Cl)cc2Cl)[nH]1 + CC1(C)CCC(c2ccc(Cl)cc2)=C(CN2CCN(c3ccc(C(=O)NS(=O)(=O)c4ccc(N[C@H](CCN5CCOCC5)CSc5ccccc5)c(S(=O)(=O)C(F)(F)F)c4)cc3)CC2)C1 [Navitoclax] (partner 0.5 µM)
- relative viability (HCC-78; first compound 0.08 µM): 0.955
- relative viability (HCC-78; first compound 0.253 µM): 0.661
- relative viability (HCC-78; first compound 0.8 µM): 0.701
- relative viability (HCC-78; first compound 2.53 µM): 0.757
- relative viability (HCC-827; first compound 0.08 µM): 1.04
- relative viability (HCC-827; first compound 0.8 µM): 1.05
- relative viability (HCC-827; first compound 2.53 µM): 1.05
- relative viability (NCI-H1650; first compound 0.08 µM): 1.13
- relative viability (NCI-H1650; first compound 0.253 µM): 1.05
- relative viability (NCI-H1650; first compound 0.8 µM): 1.42
- relative viability (NCI-H1650; first compound 2.53 µM): 1.21
- relative viability (LK-2; first compound 0.08 µM): 1.01
- relative viability (LK-2; first compound 0.253 µM): 0.9
- relative viability (LK-2; first compound 0.8 µM): 0.872
- relative viability (LK-2; first compound 2.53 µM): 1.28
- relative viability (NCI-H2087; first compound 0.08 µM): 0.88
- relative viability (NCI-H2087; first compound 0.253 µM): 0.966
- relative viability (NCI-H2087; first compound 0.8 µM): 1.03
- relative viability (NCI-H2087; first compound 2.53 µM): 0.967
- relative viability (EKVX; first compound 0.08 µM): 0.715
- relative viability (EKVX; first compound 0.253 µM): 0.844
- relative viability (EKVX; first compound 0.8 µM): 0.905
- relative viability (EKVX; first compound 2.53 µM): 0.814
- relative viability (NCI-H1792; first compound 0.08 µM): 0.624
- relative viability (NCI-H1792; first compound 0.253 µM): 0.577
- relative viability (NCI-H1792; first compound 0.8 µM): 0.601
- relative viability (NCI-H1792; first compound 2.53 µM): 0.568
- relative viability (NCI-H727; first compound 0.08 µM): 0.45
- relative viability (NCI-H727; first compound 0.253 µM): 0.432
- relative viability (NCI-H727; first compound 0.8 µM): 0.476
- relative viability (NCI-H727; first compound 2.53 µM): 0.364
- relative viability (COR-L 105; first compound 0.08 µM): 0.875
- relative viability (COR-L 105; first compound 0.253 µM): 0.686
- relative viability (COR-L 105; first compound 0.8 µM): 1.54
- relative viability (COR-L 105; first compound 2.53 µM): 0.558
- relative viability (NCI-H1734; first compound 0.08 µM): 0.946
- relative viability (NCI-H1734; first compound 0.253 µM): 0.784
- relative viability (NCI-H1734; first compound 0.8 µM): 0.829
- relative viability (NCI-H1734; first compound 2.53 µM): 0.788
- relative viability (EMC-BAC-2; first compound 0.08 µM): 1.17
- relative viability (EMC-BAC-2; first compound 0.253 µM): 1.05
- relative viability (EMC-BAC-2; first compound 0.8 µM): 1.18
- relative viability (EMC-BAC-2; first compound 2.53 µM): 1.18
- relative viability (EPLC-272H; first compound 0.08 µM): 1.22
- relative viability (EPLC-272H; first compound 0.253 µM): 1.31
- relative viability (EPLC-272H; first compound 0.8 µM): 1.12
- relative viability (EPLC-272H; first compound 2.53 µM): 1.07
- relative viability (SK-MES-1; first compound 0.08 µM): 1.19
- relative viability (SK-MES-1; first compound 0.253 µM): 1.14
- relative viability (SK-MES-1; first compound 2.53 µM): 1.14
- relative viability (NCI-H2126; first compound 0.08 µM): 0.881
- relative viability (NCI-H2126; first compound 0.253 µM): 0.897
- relative viability (NCI-H2126; first compound 0.8 µM): 0.878
- relative viability (NCI-H2126; first compound 2.53 µM): 0.835
- relative viability (LOU-NH91; first compound 0.08 µM): 0.821
- relative viability (LOU-NH91; first compound 0.253 µM): 0.679
- relative viability (LOU-NH91; first compound 0.8 µM): 0.611
- relative viability (LOU-NH91; first compound 2.53 µM): 0.633
- relative viability (ChaGo-K-1; first compound 0.08 µM): 0.791
- relative viability (ChaGo-K-1; first compound 0.253 µM): 0.863
- relative viability (ChaGo-K-1; first compound 0.8 µM): 0.516
- relative viability (ChaGo-K-1; first compound 2.53 µM): 0.856
- relative viability (RERF-LC-KJ; first compound 0.08 µM): 1.08
- relative viability (RERF-LC-KJ; first compound 0.253 µM): 0.626
- relative viability (RERF-LC-KJ; first compound 0.8 µM): 0.905
- relative viability (RERF-LC-KJ; first compound 2.53 µM): 0.776
- relative viability (SW 1573; first compound 0.08 µM): 1.29
- relative viability (SW 1573; first compound 0.253 µM): 0.801
- relative viability (SW 1573; first compound 0.8 µM): 1.01
- relative viability (SW 1573; first compound 2.53 µM): 0.685
- relative viability (LU99A; first compound 0.08 µM): 0.858
- relative viability (LU99A; first compound 0.253 µM): 0.808
- relative viability (LU99A; first compound 0.8 µM): 0.794
- relative viability (LU99A; first compound 2.53 µM): 0.823
- relative viability (NCI-H1944; first compound 0.08 µM): 1.03
- relative viability (NCI-H1944; first compound 0.8 µM): 0.992
- relative viability (NCI-H1944; first compound 2.53 µM): 1
- relative viability (BEN; first compound 0.08 µM): 0.0701
- relative viability (BEN; first compound 0.253 µM): 0.0548
- relative viability (BEN; first compound 0.8 µM): 0.0658
- relative viability (BEN; first compound 2.53 µM): 0.0673
- relative viability (LCLC-97TM1; first compound 0.08 µM): 0.41
- relative viability (LCLC-97TM1; first compound 0.253 µM): 0.377
- relative viability (LCLC-97TM1; first compound 0.8 µM): 0.42
- relative viability (LCLC-97TM1; first compound 2.53 µM): 0.4
